Experimental data published in patent publication US20250230193A1, “CYCLIC COMPOUND HAVING SELECTIVE KRAS INHIBITORY EFFECT ON HRAS AND NRAS” (CHUGAI SEIYAKU KABUSHIKI KAISHA, priority 2022, published 2025).

Tests used:
[1] = molecular target: GDP-bound NRAS wild-type protein (Homo sapiens, UniProt P01111); assay: Binding to NRAS by surface plasmon resonance (SPR), Single Cycle Kinetics; conditions: SPR; for NRAS/KRAS (ratio of KD value for NRAS to KD value for KRAS) / NRAS/KRAS (ratio of KD value with respect to NRAS to KD value with respect to KRAS): GDP-bound NRAS wild-type vs GDP-bound KRAS wild-type
[2] = molecular target: GDP-bound HRAS wild-type protein (Homo sapiens, UniProt P01112); assay: Binding to HRAS by surface plasmon resonance (SPR), Single Cycle Kinetics; conditions: SPR; for HRAS/KRAS (ratio of KD value for HRAS to KD value for KRAS) / HRAS/KRAS (ratio of KD value with respect to HRAS to KD value with respect to KRAS): GDP-bound HRAS wild-type vs GDP-bound KRAS wild-type
GDP-bound HRAS wild-type protein, sequence (P01112 whole entry): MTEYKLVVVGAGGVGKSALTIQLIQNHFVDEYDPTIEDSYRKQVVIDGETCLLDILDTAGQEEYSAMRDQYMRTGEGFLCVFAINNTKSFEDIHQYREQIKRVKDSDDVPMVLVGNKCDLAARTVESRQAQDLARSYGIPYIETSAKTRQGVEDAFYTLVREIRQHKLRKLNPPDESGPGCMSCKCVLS

GDP-bound NRAS wild-type protein, sequence (P01111 whole entry): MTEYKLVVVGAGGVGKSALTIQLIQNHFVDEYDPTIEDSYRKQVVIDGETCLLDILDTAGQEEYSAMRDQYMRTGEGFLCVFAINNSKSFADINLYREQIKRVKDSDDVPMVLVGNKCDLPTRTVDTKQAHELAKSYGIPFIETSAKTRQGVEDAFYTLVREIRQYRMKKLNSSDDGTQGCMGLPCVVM

Compound: CCCN(C)C(=O)[C@@H]1CC(=O)N(C)[C@@H](CCOC)C(=O)N[C@@H]([C@@H](C)CC)C(=O)N(C)CC(=O)N(C)[C@H]2C/C=C\CCN(C2=O)[C@@H](Cc2ccc(C(F)(F)F)cc2)C(=O)N(C)CC(=O)N[C@@H](CCc2cc(F)c(C(F)(F)F)c(F)c2)C(=O)N2C[C@@H](C)C[C@H]2C(=O)NC2(CC(C)(C)C2)C(=O)N(C)[C@@H](C2CCCC2)C(=O)N1C [PP1974]
- NRAS/KRAS (ratio of KD value for NRAS to KD value for KRAS) ([1]; KD ratio): A (a compound having 10 or more and less than 20 is denoted as A)
- HRAS/KRAS (ratio of KD value for HRAS to KD value for KRAS) ([2]; KD ratio): A (a compound having 10 or more and less than 20 is denoted as A)

Compound: CCCC[C@H]1C(=O)N[C@@H]([C@@H](C)CC)C(=O)N(C)CC(=O)N(C)[C@H]2C/C=C\CCN(C2=O)[C@@H](Cc2ccc(C(F)(F)F)cc2)C(=O)N(C)CC(=O)N[C@@H](CCc2cc(F)c(C(F)(F)F)c(F)c2)C(=O)N2C[C@H](OCC)C[C@H]2C(=O)NC2(CC(C)(C)C2)C(=O)N(C)[C@@H](C2CCCC2)C(=O)N(C)[C@H](C(=O)N(C)C)CC(=O)N1C [PP1649]
- NRAS/KRAS (ratio of KD value for NRAS to KD value for KRAS) ([1]; KD ratio): A (a compound having 10 or more and less than 20 is denoted as A)
- HRAS/KRAS (ratio of KD value for HRAS to KD value for KRAS) ([2]; KD ratio): B (a compound having 3 or more and less than 10 is denoted as B)

Compound: CCO[C@@H]1C[C@H]2C(=O)NC3(CCC3)C(=O)N(C)[C@@H](C3CCCC3)C(=O)N(C)[C@H](C(=O)N(C)C)CC(=O)N(C)[C@@H](CC(F)F)C(=O)N[C@@H]([C@@H](C)CC)C(=O)N(C)CC(=O)N(C)[C@H]3C/C=C\CCN(C3=O)[C@@H](Cc3ccc(C(F)(F)F)cc3)C(=O)N(C)CC(=O)N[C@@H](CCc3cc(F)c(C(F)(F)F)c(F)c3)C(=O)N2C1 [PP1120]
- NRAS/KRAS (ratio of KD value with respect to NRAS to KD value with respect to KRAS) ([1]; KD ratio): A (a compound having 10 or more and less than 20 is denoted as A)
- HRAS/KRAS (ratio of KD value with respect to HRAS to KD value with respect to KRAS) ([2]; KD ratio): A (a compound having 10 or more and less than 20 is denoted as A)

Compound: CC[C@H](C)[C@@H]1NC(=O)[C@H](CC(F)F)N(C)C(=O)C[C@@H](C(=O)N(C)CC)N(C)C(=O)[C@H](C2CCCC2)N(C)C(=O)C2(CC(C)(C)C2)NC(=O)[C@@H]2C[C@@H](C)CN2C(=O)[C@H](CCc2ccc(C(F)(F)F)c(Cl)c2)NC(=O)CN(C)C(=O)[C@H](Cc2ccc(C)cc2)N2CC/C=C\C[C@@H](C2=O)N(C)C(=O)CN(C)C1=O [PP1837]
- NRAS/KRAS (ratio of KD value for NRAS to KD value for KRAS) ([1]; KD ratio): A (a compound having 10 or more and less than 20 is denoted as A)
- HRAS/KRAS (ratio of KD value for HRAS to KD value for KRAS) ([2]; KD ratio): A (a compound having 10 or more and less than 20 is denoted as A)

Compound: CC[C@H](C)[C@@H]1NC(=O)[C@H](COC)N(C)C(=O)C[C@@H](C(=O)N(CC)CC)N(C)C(=O)[C@H](C2CCCC2)N(C)C(=O)C2(CC(C)(C)C2)NC(=O)[C@@H]2C[C@H](C)CN2C(=O)[C@H](CCc2cc(F)c(C(F)(F)F)c(F)c2)NC(=O)CN(C)C(=O)[C@H](Cc2ccc(C)cc2)N2CC/C=C\C[C@@H](C2=O)N(C)C(=O)CN(C)C1=O [PP2455]
- NRAS/KRAS (ratio of KD value with respect to NRAS to KD value with respect to KRAS) [1]: AA (a compound having 20 or more is denoted as AA)
- HRAS/KRAS (ratio of KD value with respect to HRAS to KD value with respect to KRAS) [2]: A (a compound having 10 or more and less than 20 is denoted as A)

Compound: CCO[C@@H]1C[C@H]2C(=O)NC3(CC(C)(C)C3)C(=O)N(C)[C@@H](C3CCCC3)C(=O)N(C)[C@H](C(=O)N(C)C)CC(=O)N(C)[C@@H](C)C(=O)N[C@@H]([C@@H](C)CC)C(=O)N(C)CC(=O)N(C)[C@H]3CCCCCN(C3=O)[C@@H](Cc3ccc(C(F)(F)F)cc3)C(=O)N(C)CC(=O)N[C@@H](CCc3cc(F)c(C(F)(F)F)c(F)c3)C(=O)N2C1 [PP0723]
- NRAS/KRAS (ratio of KD value with respect to GDP-bound NRAS wild-type protein to KD value with respect to KRAS) ([1]; KD ratio NRAS/KRAS): B (a compound having 3 or more and less than 10 is denoted as B)
- HRAS/KRAS (ratio of KD value with respect to GDP-bound HRAS wild-type protein to KD value with respect to KRAS) ([2]; KD ratio HRAS/KRAS): B (a compound having 3 or more and less than 10 is denoted as B)

Compound: CC[C@H](C)[C@@H]1NC(=O)[C@H](CC(C)C)N(C)C(=O)C[C@@H](C(=O)N2CCOCC2)N(C)C(=O)[C@H](C2CCCC2)N(C)C(=O)C2(CCC2)NC(=O)[C@]2(C)CCCN2C(=O)[C@H](CCc2cc(F)c(C(F)(F)F)c(F)c2)NC(=O)CN(C)C(=O)[C@H](Cc2ccc(C(F)(F)F)cc2)N2CCCCC[C@@H](C2=O)N(C)C(=O)CN(C)C1=O [PP0817]
- NRAS/KRAS (ratio of KD value with respect to NRAS to KD value with respect to KRAS) ([1]; KD ratio): A (a compound having 10 or more and less than 20 is denoted as A)
- HRAS/KRAS (ratio of KD value with respect to HRAS to KD value with respect to KRAS) ([2]; KD ratio): B (a compound having 3 or more and less than 10 is denoted as B)
